Data published in ChEMBL document CHEMBL1141415, “Design, synthesis, and crystal structure of hydroxyethyl secondary amine-based peptidomimetic inhibitors of human beta-secretase” (J Med Chem, 2007).

Experiments:
Beta-secretase (BACE) [1] = molecular target: T1, Beta-secretase (BACE) (Homo sapiens, UniProt Q9Y5Z0+P56817); assay: Inhibition of beta amyloid production in human HEK293 cells; format: functional, cell-based
Beta-secretase 1 = Beta-secretase 1 (Homo sapiens, UniProt P56817); assay: Inhibition of human BACE1 by MBPC125Swe assay; format: cell-based
Beta-secretase (BACE) [2] = molecular target: T1, Beta-secretase (BACE); assay: Ratio of EC50 for beta amyloid to IC50 for BACE1; format: functional

Chain of Beta-secretase 1 (P56817 whole entry): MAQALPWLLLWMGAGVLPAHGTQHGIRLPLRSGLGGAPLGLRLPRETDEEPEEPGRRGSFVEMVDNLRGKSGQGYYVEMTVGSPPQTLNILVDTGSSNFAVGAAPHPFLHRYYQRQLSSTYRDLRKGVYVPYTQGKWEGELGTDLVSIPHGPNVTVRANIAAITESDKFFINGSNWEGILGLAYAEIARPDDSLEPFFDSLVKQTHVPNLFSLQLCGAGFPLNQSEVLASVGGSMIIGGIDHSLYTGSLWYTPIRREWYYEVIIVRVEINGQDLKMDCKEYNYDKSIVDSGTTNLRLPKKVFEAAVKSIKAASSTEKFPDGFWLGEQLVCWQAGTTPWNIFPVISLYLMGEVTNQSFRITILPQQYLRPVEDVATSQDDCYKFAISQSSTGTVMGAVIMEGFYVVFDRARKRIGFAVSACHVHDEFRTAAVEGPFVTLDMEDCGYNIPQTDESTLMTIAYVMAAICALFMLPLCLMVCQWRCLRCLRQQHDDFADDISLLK
T1 sequence (P56817 whole entry, looked up): as the sequence (P56817 whole entry) above
T1 sequence (Q9Y5Z0 whole entry, looked up): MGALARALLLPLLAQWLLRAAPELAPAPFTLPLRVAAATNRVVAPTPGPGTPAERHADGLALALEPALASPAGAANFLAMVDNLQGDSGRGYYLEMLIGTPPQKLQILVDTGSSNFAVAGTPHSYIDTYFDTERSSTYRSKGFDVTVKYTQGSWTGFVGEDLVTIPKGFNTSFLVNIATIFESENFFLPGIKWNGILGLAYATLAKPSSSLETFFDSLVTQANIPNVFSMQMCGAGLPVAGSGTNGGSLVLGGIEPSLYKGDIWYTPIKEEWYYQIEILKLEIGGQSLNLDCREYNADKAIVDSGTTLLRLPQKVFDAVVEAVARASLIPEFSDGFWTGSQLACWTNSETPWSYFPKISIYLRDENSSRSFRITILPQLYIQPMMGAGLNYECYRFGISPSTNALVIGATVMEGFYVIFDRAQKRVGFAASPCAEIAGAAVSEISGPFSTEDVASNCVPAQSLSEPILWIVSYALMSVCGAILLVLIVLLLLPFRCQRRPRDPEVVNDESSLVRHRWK

| Compound | EC50 (Beta-secretase (BACE) [1]) | IC50 (Beta-secretase 1) | Ratio (Beta-secretase (BACE) [2]) |
| --- | --- | --- | --- |
| CCCN(CCC)C(=O)c1cccc(C(=O)N[C@@H](Cc2cc(F)cc(F)c2)[C@H](O)CN[C@H](C)C(=O)NCC(C)C)c1 | 600 nM | 500 nM | – |
| CCCN(CCC)C(=O)c1cc(C)cc(C(=O)N[C@@H](Cc2cc(F)cc(F)c2)[C@H](O)CNC(C)(C)C(=O)NCC(C)C)c1 | 230 nM | – | – |

More lines, in order of falling IC50 (Beta-secretase 1), values ahead:

| EC50 (Beta-secretase (BACE) [1]) | IC50 (Beta-secretase 1) | Ratio (Beta-secretase (BACE) [2]) | Compound |
| --- | --- | --- | --- |
| 230 nM | 130 nM | 1 | CCCN(CCC)C(=O)c1cccc(C(=O)N[C@@H](Cc2cc(F)cc(F)c2)[C@H](O)CN[C@@H](C)C(=O)NCC(C)C)c1 |
| 40 nM | 130 nM | 0.3 | CCCN(CCC)C(=O)c1cc(C)cc(C(=O)N[C@@H](Cc2cc(F)cc(F)c2)[C@H](O)CNCc2ccccc2)c1 |
| 80 nM | 70 nM | – | CCCN(CCC)C(=O)c1cc(C)cc(C(=O)N[C@@H](Cc2cc(F)cc(F)c2)[C@H](O)CN[C@@H](C)C(=O)NCC(C)C)c1 |
